Key:
[1] = system: HCV GT1b replicon; assay: HCV replicon assay (Huh-7 cells stably transfected with HCV GT1b replicon; luciferase or NEO gene qPCR readout); type: cell-based; conditions: Hepatitis C virus, HCV 1b genotype replicon, 72 hours
Description: (§1) HCV Replicon System was utilized as a screening model in the present disclosure to evaluate the antivirus effects of the compounds disclosed herein against HCV. HCV Replicon assay was first described in Science, 1999, 285 (5424), 110-3. […] To determine the potential anti-HCV effects of the test compounds, luciferase assay and antibiotic Neomycin resistance gene were tested according to the method described in Science. 1999 Jul. 2; 285 (5424), 110-3 and J. Virol. 2003 March; 77 (5), 3007-19.
(§2) In a word, the compounds disclosed herein were tested by using human hepatic carcinoma cell line Huh-7 which is transfected stably with HCV GT1a, GT1b or GT2a replicon respectively, and resistant cells of Y93H, L31F, P32L or I302V and wild-type cells HCV 1b. HCV Replicon System disclosed herein contains G418 resistance gene NEO and Luciferase Reporter Gene, and the level of HCV replication in host cells is detected and characterized by the expression level of the NEO gene or Luciferase Reporter Gene, so the effects of the compounds herein inhibit HCV replication can be evaluated in this system. In this article, a real-time quantitative polymerase chain reaction (qPCR) method was used to detect NEO gene expression level, and chemiluminescence method was used to test Luciferase Reporter Gene expression level.
(§3) 1. Test Method for Measuring EC50 of the Compounds Based on Luciferase Assay.
(§4) The Huh-7 cells transfected with HCV replicons system were seeded into 96-well plates (8,000 cells in 125 μL/well) respectively; each test compound was diluted to desired concentration using 5-fold serial dilutions protocol, 10 doses in duplicate, and added to wells with POD™ 810 Plate Assembler. The plates were incubated in a CO2 incubator for 72 hours; after that, 40 μL of Luciferase assay substrate (Promega Bright-Glo) was added to each well, and detected by a chemiluminescence detection system (Topcount Microplate Scintillation and Luminescence Counter) 5 minutes later; the EC50 (half-maximal effective concentration, concentration for 50% of maximal effect) values of test compounds were analyzed by GraphPad Prism software. In this paper, experiments were repeated twice and set the wells without compounds as negative control.
(§5) 2. Test Method for Measuring EC50 of the Compounds by Detecting Antibiotic G418 Resistance Gene NEO Gene.
(§6) The Huh-7 cells transfected with HCV replicons system were seeded into 96-well plates (8,000 cells in 125 μL/well) respectively; each test compound was diluted to desired concentration using 5-fold serial dilutions protocol, 10 doses in duplicate, and added to each well with POD™ 810 Plate Assembler; the cells were incubated in a CO2 incubator for 72 hours; and detected the expression level of the NEO gene expression with real-time quantitative PCR later; the EC50 (half-maximal effective concentration, concentration for 50% of maximal effect) values of test compounds were analyzed by GraphPad Prism software, respectively. In this paper, experiments were repeated twice and set the wells without compounds as negative control.

[2] = system: HCV GT1a replicon; assay: HCV replicon assay (Huh-7 cells stably transfected with HCV GT1a replicon; luciferase or NEO gene qPCR readout); type: cell-based; conditions: Hepatitis C virus, HCV 1a genotype replicon, 72 hours
Description: as §1, §2, §3, §4, §5, §6

SMILES: COC(=O)N[C@H](C(=O)N1CC2(C[C@H]1c1ncc(-c3ccc(-c4ccc(-c5ccc6nc([C@@H]7CCCN7C(=O)[C@@H](NC(=O)OC)C(C)C)[nH]c6c5)c5c4C4CCC4C5)cc3)[nH]1)OCCO2)C(C)C (stereo partly shown) [Example 20]
- EC50 [1]: 0.036 nM
- EC50 [2]: 0.429 nM

SMILES: COC(=O)NC(C(=O)N1CCCC1c1nc2ccc(-c3ccc(-c4ccc(-c5cnc(C6C7CCC(C7)N6C(=O)C(NC(=O)OC)C(C)C)[nH]5)cc4)c4c3C3CCC3C4)cc2[nH]1)C(C)C (stereo not shown) [Example 36]
- EC50 [1]: 0.01 nM
- EC50 [2]: 0.935 nM

SMILES: COC(=O)NC(C(=O)N1CCCC1c1ncc(-c2ccc(-c3ccc(-c4ccc5nc(C6CCCN6C(=O)C(NC(=O)OC)C(C)C)[nH]c5c4)c4c3C3CCC3C4)cc2)[nH]1)C(C)C (stereo not shown) [Example 38]
- EC50 [1]: 0.013 nM
- EC50 [2]: 0.058 nM

SMILES: COC(=O)N[C@H](C(=O)N1CCC[C@H]1c1nc2ccc(-c3ccc(-c4ccc(-c5cnc([C@@H]6CC7CC7N6C(=O)[C@@H](NC(=O)OC)C(C)C)[nH]5)cc4)c4c3CC3CCC43)cc2[nH]1)C(C)C (stereo partly shown) [Example 3]
- EC50 [1]: 0.018 nM
- EC50 [2]: 0.088 nM

SMILES: COC(=O)N[C@H](C(=O)N1CCC[C@H]1c1ncc(-c2ccc(-c3ccc(-c4ccc5nc([C@@H]6CCCN6C(=O)[C@@H](NC(=O)OC)C(C)C)[nH]c5c4)c4c3CC3CCC43)c3cnoc23)[nH]1)C(C)C (stereo partly shown) [Example 24]
- EC50 [1]: 0.118 nM
- EC50 [2]: 0.207 nM

SMILES: COC(=O)N[C@H](C(=O)N1CCC[C@H]1C1=Nc2cc(-c3ccc(C#Cc4cnc([C@@H]5CCCN5C(=O)[C@@H](NC(=O)OC)C5CCCCC5)[nH]4)c4c3CC3C(=O)CC43)ccc2C(C)(C)N1)C1CCCCC1 (stereo partly shown) [Example 29]
- EC50 [1]: 0.309 nM
- EC50 [2]: 7.55 nM

SMILES: COC(=O)N[C@H](C(=O)N1CCC[C@H]1c1ncc(-c2ccc(-c3ccc(-c4ccc5nc([C@@H]6CCCN6C(=O)[C@@H](NC(=O)OC)C(C)C)[nH]c(=O)c5c4)c4c3C3CC(F)(F)C3C4)cc2)[nH]1)C(C)C (stereo partly shown) [Example 28]
- EC50 [1]: 0.008 nM
- EC50 [2]: 0.022 nM

SMILES: COC(=O)N[C@H](C(=O)N1CCC[C@H]1c1ncc(C#Cc2ccc(-c3ccc4nc([C@@H]5CCCN5C(=O)[C@@H](NC(=O)OC)C(C)C)[nH]c4c3)c3c2C2CCC2C3)[nH]1)C(C)C (stereo partly shown) [Example 6]
- EC50 [1]: 0.106 nM
- EC50 [2]: 0.243 nM

SMILES: COC(=O)N[C@H](C(=O)N1[C@@H]2CC[C@@H](C2)[C@H]1c1ncc(-c2ccc(-c3ccc(-c4ccc5nc([C@@H]6[C@H]7CC[C@H](C7)N6C(=O)[C@@H](NC(=O)OC)C(C)C)[nH]c5c4)c4c3C3CCC3C4)cc2)[nH]1)C(C)C (stereo partly shown) [Example 19]
- EC50 [1]: 0.044 nM
- EC50 [2]: 0.217 nM

SMILES: COC(=O)N[C@H](C(=O)N1CCC[C@H]1c1ncc(-c2ccc(-c3ccc(-c4cnc([C@@H]5CCCN5C(=O)[C@@H](NC(=O)OC)C(C)C)[nH]4)c4c3C3CCCC3C4C)cc2)[nH]1)C(C)C (stereo partly shown) [Example 33]
- EC50 [1]: 0.03 nM
- EC50 [2]: 0.082 nM

SMILES: CC[C@H](C)[C@H](NC(=O)OC)C(=O)N1CCC[C@H]1C1=Nc2ccc(-c3ccc(-c4ccc5nc([C@@H]6CCCN6C(=O)[C@@H](NC(=O)OC)C(C)C)[nH]c5c4)c4c3CC3CCCC43)cc2S(=O)(=O)N1 (stereo partly shown) [Example 31]
- EC50 [1]: 0.035 nM
- EC50 [2]: 0.083 nM

SMILES: CC(C)[C@H](NC(=O)Oc1ccccc1)C(=O)N1CC(C)(C)C[C@H]1c1ncc(-c2ccc(-c3ccc(-c4ccc5nc([C@@H]6CC(C)(C)CN6C(=O)[C@@H](NC(=O)Oc6ccccc6)C(C)C)[nH]c5c4)c4c3C3CCC3C4)cc2)[nH]1 (stereo partly shown) [Example 16]
- EC50 [1]: 0.879 nM
- EC50 [2]: 2.55 nM

SMILES: COC(=O)N[C@H](C(=O)N1CCC[C@H]1c1nc(-c2ccc(-c3ccc(-c4ccc5nc([C@@H]6CCCN6C(=O)[C@@H](NC(=O)OC)C(C)C)[nH]c5c4)c4c3C3CCC3C4)c3c2CCC3)c[nH]1)C(C)C (stereo partly shown) [Example 22]
- EC50 [1]: 0.082 nM
- EC50 [2]: 0.233 nM

SMILES: COC(=O)N[C@H](C(=O)N1CCCC[C@H]1c1ncc(-c2ccc(-c3ccc(-c4ccc5nc([C@@H]6CCCCN6C(=O)[C@@H](NC(=O)OC)C(C)C)[nH]c5c4)c4c3C3CCC3C4)cc2)[nH]1)C(C)C (stereo partly shown) [Example 13]
- EC50 [1]: 0.206 nM
- EC50 [2]: 0.418 nM
